Patent US7005453B1, “Use of hop acids to inhibit growth of Staphylococcus aureus and prevent toxic shock syndrome” (Miller Brewing Company, priority 1999, dated 2006)

Legend:
[1] = system: Staphylococcus aureus; assay: MIC assay using Staphylococcus aureus in trypticase soy broth, growth scored by turbidity; format: cell-based; conditions: for growth (turbidity score): aerobic 37° C., three days; for minimum inhibitory concentration: S. aureus at pH 6.0
Description: (§1) Minimal inhibitory concentration (MIC) assays of several hop compounds were conducted using a Staphylococcus aureus species and vaginal isolates Lactobacillus vaginalias, Lactobacillus crispatus, Lactobacillus gasseri, and Lactobacillus jensenii as test microorganisms. Lactobacillus assays were conducted in Lactobacillus MRS broth (Difco) tubes. A 0.1 ml aliquot of a 1% (w/w) solution of each hop acid in alcohol was added to a tube of sterile MRS broth to give a final concentration of 100 ppm of the hop. This solution was serially diluted in tubes with sterile MRS broth using a two-fold dilution series. A second dilution series prepared as above, but using 0.1 ml alcohol without hop acid, was used as a positive control of bacterial growth. Each tube was inoculated with a fresh culture (10^4 cells) of a Lactobacillus species in MRS broth. The cultures were incubated anaerobically in a CO2 incubator at 28° C. for five days. Growth was evaluated by visually assessing and scoring development of turbidity in the tube of broth.
The MIC assays for Staphylococcus aureus were conducted in Difco trypticase soy broth (TSB) using the same serial dilution technique and the inoculum level as described above. The pH of the TSB was adjusted to pH7.0, pH 6.0, or pH5.0 using hydrochloric acid. The tubes were incubated aerobically at 37° C. for three days and growth was evaluated by visually assessing and scored the development of turbidity in the broth.

[2] = system: Lactobacillus species; assay: MIC assay using Lactobacillus species (vaginal isolates) in MRS broth, growth scored by turbidity; format: cell-based; conditions: for growth (turbidity score): MRS at pH 6.3, anaerobic 28° C., five days; for concentration as high as which Lactobacillus exhibited strong growth: Lactobacillus species tested
Description: as §1

hexahydro beta acids
growth (turbidity score) ([1]; 0.2 ppm, TSB at pH 5.0): No growth | growth (turbidity score) ([1]; 0.2 ppm, TSB at pH 6.0): + Growth | growth (turbidity score) ([1]; 0.2 ppm, TSB at pH 7.0): +++ Growth | growth (turbidity score) ([1]; 0.39 ppm, TSB at pH 5.0): No growth | growth (turbidity score) ([1]; 0.39 ppm, TSB at pH 6.0): No growth | growth (turbidity score) ([1]; 0.39 ppm, TSB at pH 7.0): ++ Growth | growth (turbidity score) ([1]; 0.78 ppm, TSB at pH 5.0): No growth | growth (turbidity score) ([1]; 0.78 ppm, TSB at pH 6.0): No growth | growth (turbidity score) ([1]; 0.78 ppm, TSB at pH 7.0): + Growth | growth (turbidity score) ([1]; 1.56 ppm, TSB at pH 5.0): No growth | growth (turbidity score) ([1]; 1.56 ppm, TSB at pH 6.0): No growth | growth (turbidity score) ([1]; 1.56 ppm, TSB at pH 7.0): +/− Growth | growth (turbidity score) ([1]; 3.125 ppm, TSB at pH 5.0): No growth | growth (turbidity score) ([1]; 3.125 ppm, TSB at pH 6.0): No growth | growth (turbidity score) ([1]; 3.125 ppm, TSB at pH 7.0): No growth | growth (turbidity score) ([1]; 6.25 ppm, TSB at pH 5.0): No growth | growth (turbidity score) ([1]; 6.25 ppm, TSB at pH 6.0): No growth | growth (turbidity score) ([1]; 6.25 ppm, TSB at pH 7.0): No growth | growth (turbidity score) ([1]; 12.5 ppm, TSB at pH 5.0): No growth | growth (turbidity score) ([1]; 12.5 ppm, TSB at pH 6.0): No growth | growth (turbidity score) ([1]; 12.5 ppm, TSB at pH 7.0): No growth | growth (turbidity score) ([1]; 25 ppm, TSB at pH 5.0): No growth | growth (turbidity score) ([1]; 25 ppm, TSB at pH 6.0): No growth | growth (turbidity score) ([1]; 25 ppm, TSB at pH 7.0): No growth | growth (turbidity score) ([1]; 50 ppm, TSB at pH 5.0): No growth | growth (turbidity score) ([1]; 50 ppm, TSB at pH 6.0): No growth | growth (turbidity score) ([1]; 50 ppm, TSB at pH 7.0): No growth | growth (turbidity score) ([1]; 100 ppm, TSB at pH 5.0): No growth | growth (turbidity score) ([1]; 100 ppm, TSB at pH 6.0): No growth | growth (turbidity score) ([1]; 100 ppm, TSB at pH 7.0): No growth | concentration as low as which S. aureus showed no to very weak growth [1]: 1.56 ppm | minimum inhibitory concentration [1]: 0.78 ppm | growth (turbidity score) ([2]; 0.2 ppm): +++ Growth | growth (turbidity score) ([2]; 0.39 ppm): +++ Growth | growth (turbidity score) ([2]; 0.78 ppm): +++ Growth | growth (turbidity score) ([2]; 1.56 ppm): +++ Growth | growth (turbidity score) ([2]; 3.125 ppm): +++ Growth | growth (turbidity score) ([2]; 6.25 ppm): +++ Growth | growth (turbidity score) ([2]; 12.5 ppm): +++ Growth | growth (turbidity score) ([2]; 25 ppm): +/− Growth | growth (turbidity score) ([2]; 50 ppm): No growth | growth (turbidity score) ([2]; 100 ppm): No growth | concentration as high as which Lactobacillus exhibited strong growth [2]: 12.5 ppm

tetrahydroiso alpha acids
growth (turbidity score) ([1]; 0.2 ppm, TSB at pH 5.0): No growth | growth (turbidity score) ([1]; 0.2 ppm, TSB at pH 6.0): ++ Growth | growth (turbidity score) ([1]; 0.2 ppm, TSB at pH 7.0): +++ Growth | growth (turbidity score) ([1]; 0.39 ppm, TSB at pH 5.0): No growth | growth (turbidity score) ([1]; 0.39 ppm, TSB at pH 6.0): +/− Growth | growth (turbidity score) ([1]; 0.39 ppm, TSB at pH 7.0): ++ Growth | growth (turbidity score) ([1]; 0.78 ppm, TSB at pH 5.0): No growth | growth (turbidity score) ([1]; 0.78 ppm, TSB at pH 6.0): No growth | growth (turbidity score) ([1]; 0.78 ppm, TSB at pH 7.0): + Growth | growth (turbidity score) ([1]; 1.56 ppm, TSB at pH 5.0): No growth | growth (turbidity score) ([1]; 1.56 ppm, TSB at pH 6.0): No growth | growth (turbidity score) ([1]; 1.56 ppm, TSB at pH 7.0): +/− Growth | growth (turbidity score) ([1]; 3.125 ppm, TSB at pH 5.0): No growth | growth (turbidity score) ([1]; 3.125 ppm, TSB at pH 6.0): No growth | growth (turbidity score) ([1]; 3.125 ppm, TSB at pH 7.0): No growth | growth (turbidity score) ([1]; 6.25 ppm, TSB at pH 5.0): No growth | growth (turbidity score) ([1]; 6.25 ppm, TSB at pH 6.0): No growth | growth (turbidity score) ([1]; 6.25 ppm, TSB at pH 7.0): No growth | growth (turbidity score) ([1]; 12.5 ppm, TSB at pH 5.0): No growth | growth (turbidity score) ([1]; 12.5 ppm, TSB at pH 6.0): No growth | growth (turbidity score) ([1]; 12.5 ppm, TSB at pH 7.0): No growth | growth (turbidity score) ([1]; 25 ppm, TSB at pH 5.0): No growth | growth (turbidity score) ([1]; 25 ppm, TSB at pH 6.0): No growth | growth (turbidity score) ([1]; 25 ppm, TSB at pH 7.0): No growth | growth (turbidity score) ([1]; 50 ppm, TSB at pH 5.0): No growth | growth (turbidity score) ([1]; 50 ppm, TSB at pH 6.0): No growth | growth (turbidity score) ([1]; 50 ppm, TSB at pH 7.0): No growth | growth (turbidity score) ([1]; 100 ppm, TSB at pH 5.0): No growth | growth (turbidity score) ([1]; 100 ppm, TSB at pH 6.0): No growth | growth (turbidity score) ([1]; 100 ppm, TSB at pH 7.0): No growth | concentration as low as which S. aureus showed no to very weak growth [1]: 1.56 ppm | minimum inhibitory concentration [1]: 0.78 ppm | growth (turbidity score) ([2]; 0.2 ppm): +++ Growth | growth (turbidity score) ([2]; 0.39 ppm): +++ Growth | growth (turbidity score) ([2]; 0.78 ppm): +++ Growth | growth (turbidity score) ([2]; 1.56 ppm): +++ Growth | growth (turbidity score) ([2]; 3.125 ppm): +++ Growth | growth (turbidity score) ([2]; 6.25 ppm): +++ Growth | growth (turbidity score) ([2]; 12.5 ppm): ++ Growth | growth (turbidity score) ([2]; 25 ppm): +/− Growth | growth (turbidity score) ([2]; 50 ppm): No growth | growth (turbidity score) ([2]; 100 ppm): No growth | concentration as high as which Lactobacillus exhibited strong growth [2]: 12.5 ppm
